Test results from patent publication US5698551A, “Heterocyclic compounds” (Novo Nordisk A/S, priority 1995, dated 1997).

System: NMRI female mice
Test: Inhibition of formalin induced pain response in mice
Assay type: in vivo
Conditions: at 0.1 mg/kg, 1% formalin into left hind paw
Procedure: Formalin induced pain or paw oedema
Values for in vivo inhibition of formalin induced pain or oedema for the compounds of the present invention were assessed in mice essentially by the method of Wheeler-Aceto and Cowan (Agents Action 1991, 34, 265-269).
About 20 g NMRI female mice were injected […] 1% formalin into the left hind paw. The animals were then placed on a heated (31° C.) table, and the pain response was scored. After 1 h they were killed and bled. Left and right hind paws were removed and the weight difference between the paws was used as indication of the oedema response of the formalin injected paw.
Values for inhibition of formalin induced pain response for some representative compounds are recorded in table 1.

| Structure (SMILES) | % Pain inhibition (inhibition of formalin induced pain response) |
| --- | --- |
| Cl.O=C(O)[C@@H]1CCCN(CCCN2C(=O)c3ccccc3Nc3ccccc32)C1 [Example 1, (R)-1-(3-(11-Oxo-10,11-dihydro-5H-dibenzo[b,e][1,4]diazepin-10-yl)-1-propyl)-3-piperidinecarboxylic acid hydrochloride] | 13% |
| Cl.Cl.O=C(O)[C@@H]1CCCN(CCCN2Cc3ccccc3CCc3ccccc32)C1 [Example 6, (R)-1-(3-(5,6,11,12-Tetrahydro-dibenz[b,f]azocin-5-yl)-1-propyl)-3-piperidinecarboxylic acid dihydrochloride] | 22% |
| Cl.O=C(O)[C@@H]1CCCN(CCCN2Cc3ccccc3Cc3ccccc32)C1 [Example 3, (R)-1-(3-(6,11-Dihydro-5H-dibenz[b,e]azepin-5-yl)-1-propyl)-3-piperidine-carboxylic acid hydrochloride] | 36% |
| Cl.O=C(O)[C@@H]1CCCN(CCCn2c(=O)c3ccccc3c(=O)c3ccccc32)C1 [Example 4, (R)-1-(3-(6,11-Dioxo-6,11-dihydro-5H-dibenz[b,e]azepin-5-yl)-1-propyl)-3-piperidine-carboxylic acid hydrochloride] | 28% |
| Cl.O=C(O)[C@@H]1CCCN(CCCN2C(=O)c3ccccc3CCc3ccccc32)C1 [Example 2, (R)-1-(3-(6-Oxo-11,12-dihydro-5H-dibenz[b,f]azocin-5-yl)-1-propyl)-3-piperidinecarboxylic acid hydrochloride] | 34% |
